Values joined by “and” are separate entries in the source; they are usually repeats but may differ in a detail not shown here. Equal values may be shown once.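 Assay format: 96-well plates, 48-hour exposure. Here, GI50 denotes the concentration required for 50% inhibition of growth. The concentration for full growth arrest is given as TGI.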

Among the test systems are MALME-3M melanoma; HOP-92 NSCLC; SN12C renal; ACHN renal; M14 melanoma; CCRF-CEM leukemia; OVCAR-8 ovarian; OVCAR-3 ovarian; EKVX NSCLC; COLO 205 colon.
Common to all, as to assay: NCI anticancer screen, dose series, 48 h

Turning to `COc1cc(C2C3=C(COC3=O)Nc3c2ccc2c3CCCC2)cc2c1OCO2` (stereo unspecified), the GI50 is 81.5 µM in the assay on MALME-3M melanoma; 0.364 µM in the assay on HOP-92 NSCLC; 0.0723 µM with SN12C renal; 0.134 µM with ACHN renal; 0.033 µM with M14 melanoma; 0.0367 µM with CCRF-CEM leukemia. Further, the GI50 was 0.045 µM with OVCAR-8 ovarian, 0.0233 µM in the assay on OVCAR-3 ovarian, 0.0908 µM in the assay with EKVX NSCLC and 0.0322 µM with COLO 205 colon. The TGI with MALME-3M melanoma is more than 100 µM; with HOP-92 NSCLC it was 20.8 µM; in the assay with SN12C renal, more than 100 µM; in the assay on ACHN renal it was more than 100 µM; in the assay with M14 melanoma it was 67.4 µM; with CCRF-CEM leukemia it was more than 100 µM. For the same molecule, the TGI in the assay with OVCAR-8 ovarian was 20.2 µM; in the assay with OVCAR-3 ovarian, 0.0518 µM; with EKVX NSCLC, more than 100 µM; with COLO 205 colon it was 0.0942 µM.

Turning to `CC(C)n1nc(-c2ccc3oc(N)nc3c2)c2c(N)ncnc21`, the GI50 was less than 0.01 µM with MALME-3M melanoma; less than 0.01 µM in the assay on HOP-92 NSCLC; < 0.0114 µM and 0.0113 µM in the assay with SN12C renal; 0.0105 µM and 0.013 µM in the assay on ACHN renal; less than 0.01 µM in the assay with M14 melanoma; 0.0265 µM and 0.0467 µM with CCRF-CEM leukemia. Further, the GI50 in the assay on OVCAR-8 ovarian is 0.0246 µM and 0.0218 µM; in the assay with OVCAR-3 ovarian, < 0.013 µM and 0.012 µM; with EKVX NSCLC it was 0.0159 µM; in the assay with COLO 205 colon, < 0.01 µM and 0.0144 µM. Also, the TGI with MALME-3M melanoma was < 0.01 µM and 0.022 µM; in the assay on HOP-92 NSCLC it was less than 0.01 µM; in the assay on SN12C renal, 2.69 µM and 8.69 µM; in the assay on ACHN renal, 1.14 µM and 0.82 µM; in the assay with M14 melanoma, 0.522 µM and 0.678 µM; in the assay with CCRF-CEM leukemia it was more than 45.6 µM. The TGI in the assay with OVCAR-8 ovarian was 1.24 µM and 0.506 µM; with OVCAR-3 ovarian, 0.411 µM and 0.759 µM; in the assay on EKVX NSCLC it was 0.225 µM; in the assay on COLO 205 colon, 2.21 µM and 1.88 µM.

Turning to `C/C(=N\NC(=S)N1CC2CCC(CC2)C1)c1cccc(C)n1`, the GI50 in the assay with MALME-3M melanoma was 0.605 µM; in the assay on SN12C renal, 0.774 µM; with M14 melanoma it was 0.477 µM; with CCRF-CEM leukemia it was 0.000124 µM; with OVCAR-8 ovarian it was 0.229 µM; with OVCAR-3 ovarian, 0.00014 µM. Also, the GI50 was 0.326 µM in the assay with EKVX NSCLC and 0.000385 µM in the assay on COLO 205 colon. Moreover, the TGI in the assay on MALME-3M melanoma came out at 17.8 µM; in the assay with HOP-92 NSCLC, 16.4 µM; with SN12C renal, 12.6 µM; in the assay with ACHN renal, 5.33 µM; in the assay on M14 melanoma, 5.55 µM; in the assay with OVCAR-8 ovarian, 13 µM. The TGI in the assay with OVCAR-3 ovarian was 9.75 µM; in the assay with EKVX NSCLC it was 4.63 µM; in the assay with COLO 205 colon, 11.1 µM.

For the molecule `CC1=C(Cl)C=CP(=O)(OC(C)C)C1` (stereo unspecified), the TGI in the assay with MALME-3M melanoma, in the assay with HOP-92 NSCLC, in the assay on SN12C renal, with ACHN renal, in the assay on M14 melanoma and in the assay on CCRF-CEM leukemia was more than 100 µM throughout. In addition, the TGI in the assay on OVCAR-8 ovarian, in the assay with OVCAR-3 ovarian, in the assay with EKVX NSCLC and in the assay on COLO 205 colon was more than 100 µM throughout.

As for `C#CC1(O)c2ccccc2C(=O)c2ccccc21`, the TGI with MALME-3M melanoma is more than 100 µM; with HOP-92 NSCLC, 99.6 µM; in the assay on SN12C renal it was more than 100 µM; with ACHN renal, more than 100 µM; in the assay on CCRF-CEM leukemia, more than 100 µM; in the assay on OVCAR-8 ovarian it was more than 100 µM. Also, the TGI in the assay with EKVX NSCLC and in the assay with COLO 205 colon was more than 100 µM each time.

For the molecule `Clc1ccc2nc(-c3ccccc3)nc(Cl)c2c1`, the TGI in the assay on MALME-3M melanoma is 95.1 µM; in the assay on HOP-92 NSCLC, 50.3 µM; in the assay on SN12C renal, more than 100 µM; in the assay with ACHN renal, 76.9 µM; in the assay on CCRF-CEM leukemia it was more than 100 µM; in the assay on OVCAR-8 ovarian, more than 100 µM. Also, the TGI in the assay with OVCAR-3 ovarian, in the assay with EKVX NSCLC and with COLO 205 colon was more than 100 µM in each case.

On to `COc1c(-c2ccc(O)c(O)c2)oc2c(O)c(O)cc(O)c2c1=O`, for which the TGI with MALME-3M melanoma was more than 100 µM; in the assay with HOP-92 NSCLC, more than 100 µM; with SN12C renal, 31 µM; with ACHN renal, more than 100 µM; in the assay on CCRF-CEM leukemia, 97.7 µM; with OVCAR-8 ovarian, more than 100 µM. The TGI in the assay on OVCAR-3 ovarian, in the assay with EKVX NSCLC and in the assay on COLO 205 colon was more than 100 µM throughout.

As for `O=C(Nc1cc(Cl)cc(Cl)c1)/C(Cc1nc2ccccc2[nH]c1=O)=N/NC(=O)c1ccncc1`, the TGI in the assay on MALME-3M melanoma, in the assay on HOP-92 NSCLC, in the assay on ACHN renal, in the assay on M14 melanoma, with CCRF-CEM leukemia and in the assay on OVCAR-8 ovarian was more than 100 µM in each case. For the same molecule, the TGI in the assay on OVCAR-3 ovarian, in the assay with EKVX NSCLC and in the assay on COLO 205 colon was more than 100 µM each time.

As to `O=C(CC1(O)C(=O)Nc2ccccc21)c1ccc(O)cc1` (stereo unspecified), the TGI in the assay with MALME-3M melanoma, with HOP-92 NSCLC, in the assay on SN12C renal, with ACHN renal, in the assay on M14 melanoma and in the assay with CCRF-CEM leukemia was more than 100 µM throughout. Further, the TGI with OVCAR-3 ovarian, with EKVX NSCLC and in the assay with COLO 205 colon was more than 100 µM each time.

These data come from PubChem BioAssay (NCI).
